From US20020192171A1, “Method for preventing malodor” (priority 2001, published 2002)

How the values were obtained:
underarm odor = assay: Deodorant value test (modified), odor assessment on axillae of human subjects; assay type: in vivo; conditions: general statement in description
Description: A typical test for deodorant effect of the present invention was carried out as follows. The test solution was the composition containing 0.4% monensin. The positive control was 8.2% aluminum chlorhydrate, a level that is used in most deodorant or antiperspirant products on the market and 0.4% chlorhesidine digluconate, a level that is usually used for bacterial killing. The negative control was a vehicle consisting of 60% ethanol and 40% water. Three experienced underarm odor assessors who are able to rank correctly the odor intensities based on the deodorant value test system (U.S. Pat. No. 4,278,658) performed odor assessments. Deodorant assessment scores were recorded according to the malodor category scale, when applied directly to the axillae skin of a panel of human subjects. [table] The described in deodorant value test system has been modified by measuring odor intensity every 24 hours after treatment until odor intensity is detectable (average score 1 or up) on a 0-5 score instead of just 24 hours after In example 2, fifteen subjects selected by experienced odor assessors have average odor score 3.5 (range from score 3-5). […] At 24 hour intervals, each subject was evaluated for underarm odor by averaging the score of the three assessors until odor in test groups was detectable (score 1 or up).

skin = conditions: human, in vivo

CC[C@@]1([C@@H]2O[C@@H]([C@H]3O[C@@](O)(CO)[C@H](C)C[C@@H]3C)C[C@@H]2C)CC[C@H]([C@]2(C)CC[C@]3(C[C@H](O)[C@@H](C)[C@@H]([C@@H](C)[C@@H](OC)[C@H](C)C(=O)O)O3)O2)O1 [monensin, Monensin] was tested, and the “duration of deodorant effect in preventing malodor” value (underarm odor) was “deodorant effect with a longer period than expected” and the skin irritation (skin) was “did not cause any irritation”.
